Data reported in PubChem BioAssay AID248 (DTP/NCI, 2004).
Several values for one entry are separate records, joined by “and”; a condition that tells them apart may be missing. Identical values can stand only once. Inconclusive results and toxic doses are left out.

Test system: L1210 leukemia ip in BDF1 mice, survival T/C
Experiment: NCI In Vivo Anticancer Drug Screen. Data for tumor model L1210 Leukemia (intraperitoneal) in B6D2F1 (BDF1) mice
Conditions: endpoint: mean survival time, higher = longer survival
Method in brief: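 Transplantable tumor model; survival measured in treated vs vehicle control mice. Value = treated/control.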

[1] = dose: 100.0 mg/kg/injection, schedule: Q01DX001 (ip), vehicle: carboxymethylcellulose (CMC)
[2] = dose: 200.0 mg/kg/injection, schedule: Q01DX001 (ip), vehicle: carboxymethylcellulose (CMC)
[3] = dose: 400.0 mg/kg/injection, schedule: Q01DX001 (ip), vehicle: carboxymethylcellulose (CMC)
[4] = dose: 100.0 mg/kg/injection, schedule: Q01DX001 (ip), vehicle: saline
[5] = dose: 200.0 mg/kg/injection, schedule: Q01DX001 (ip), vehicle: saline
[6] = dose: 400.0 mg/kg/injection, schedule: Q01DX001 (ip), vehicle: saline
[7] = dose: 100.0 mg/kg/injection, schedule: Q01DX001 (ip), vehicle: Klucel (hydroxypropylcellulose) (HPC)
[8] = dose: 200.0 mg/kg/injection, schedule: Q01DX001 (ip), vehicle: Klucel (hydroxypropylcellulose) (HPC)
[9] = dose: 100.0 mg/kg/injection, schedule: Q04DX002 (ip), vehicle: Klucel (hydroxypropylcellulose) (HPC)
[10] = dose: 200.0 mg/kg/injection, schedule: Q04DX002 (ip), vehicle: Klucel (hydroxypropylcellulose) (HPC)
[11] = dose: 400.0 mg/kg/injection, schedule: Q04DX002 (ip), vehicle: Klucel (hydroxypropylcellulose) (HPC)
[12] = dose: 100.0 mg/kg/injection, schedule: Q01DX009 (ip), vehicle: Klucel (hydroxypropylcellulose) (HPC)
[13] = dose: 200.0 mg/kg/injection, schedule: Q01DX009 (ip), vehicle: Klucel (hydroxypropylcellulose) (HPC)

## CCOC(=O)Cc1c[nH]c2ccc(N(CCCl)CCCl)cc12
dose: 0.55 mg/kg/injection, schedule: Q01DX009 (ip), vehicle: carboxymethylcellulose (CMC)
  T/C: 121 % of control
dose: 1.5 mg/kg/injection, schedule: Q01DX009 (ip), vehicle: carboxymethylcellulose (CMC)
  T/C: 151 % of control
dose: 2.2 mg/kg/injection, schedule: Q01DX009 (ip), vehicle: other
  T/C: 152 % of control
dose: 3.1 mg/kg/injection, schedule: Q01DX009 (ip), vehicle: carboxymethylcellulose (CMC)
  T/C: 160 % of control and 177 % of control
dose: 3.4 mg/kg/injection, schedule: Q01DX009 (ip), vehicle: other
  T/C: 152 % of control
dose: 4.8 mg/kg/injection, schedule: Q01DX009 (ip), vehicle: carboxymethylcellulose (CMC)
  T/C: 168 % of control
dose: 5.0 mg/kg/injection, schedule: Q01DX009 (ip), vehicle: other
  T/C: 169 % of control
dose: 7.0 mg/kg/injection, schedule: Q01DX009 (ip), vehicle: carboxymethylcellulose (CMC)
  T/C: 157 % of control
dose: 7.0 mg/kg/injection, schedule: Q01DX009 (ip), vehicle: other
  T/C: 176 % of control
dose: 7.3 mg/kg/injection, schedule: Q01DX001 (ip), vehicle: carboxymethylcellulose (CMC)
  T/C: 120 % of control
dose: 7.3 mg/kg/injection, schedule: Q01DX009 (ip), vehicle: carboxymethylcellulose (CMC)
  T/C: 176 % of control
dose: 11.0 mg/kg/injection, schedule: Q01DX001 (ip), vehicle: carboxymethylcellulose (CMC)
  T/C: 124 % of control
dose: 11.0 mg/kg/injection, schedule: Q01DX009 (ip), vehicle: carboxymethylcellulose (CMC)
  T/C: 168 % of control
dose: 11.1 mg/kg/injection, schedule: Q01DX009 (ip), vehicle: carboxymethylcellulose (CMC)
  T/C: 97 % of control
dose: 16.6 mg/kg/injection, schedule: Q01DX001 (ip), vehicle: carboxymethylcellulose (CMC)
  T/C: 121 % of control
dose: 25.0 mg/kg/injection, schedule: Q01DX001 (ip), vehicle: carboxymethylcellulose (CMC)
  T/C: 166 % of control and 225 % of control
dose: 37.5 mg/kg/injection, schedule: Q01DX001 (ip), vehicle: carboxymethylcellulose (CMC)
  T/C: 94 % of control

## CCN=C(Nc1ccc(C(=NC)NCC)cc1)c1ccc(C(=NCC)Nc2ccc(C(=NC)NCC)cc2)cc1
dose: 0.5 mg/kg/injection, schedule: Q01DX Z (ip), vehicle: saline
  T/C: 97 % of control
dose: 0.8 mg/kg/injection, schedule: Q01DX Z (ip), vehicle: saline
  T/C: 97 % of control
dose: 1.2 mg/kg/injection, schedule: Q01DX Z (ip), vehicle: saline
  T/C: 97 % of control
dose: 1.77 mg/kg/injection, schedule: Q01DX Z (ip), vehicle: saline
  T/C: 97 % of control and 89 % of control
dose: 2.66 mg/kg/injection, schedule: Q01DX Z (ip), vehicle: saline
  T/C: 93 % of control
dose: 4.0 mg/kg/injection, schedule: Q01DX Z (ip), vehicle: saline
  T/C: 96 % of control

## CS(=O)(=O)n1c(C(O)c2ccccc2)nc2ccccc21 (configuration not stated)
[1]
  T/C: 100 % of control
[2]
  T/C: 94 % of control
[3]
  T/C: 89 % of control

## CC(=O)Nc1ccc2c(c1)C(c1ccccc1)=NCC(=O)N2
[4]
  T/C: 103 % of control
dose: 100.0 mg/kg/injection, schedule: Q01DX Z (ip), vehicle: carboxymethylcellulose (CMC)
  T/C: 107 % of control
dose: 100.0 mg/kg/injection, schedule: Q01DX Z (ip), vehicle: methylcellulose (MC)
  T/C: 100 % of control
dose: 150.0 mg/kg/injection, schedule: Q01DX Z (ip), vehicle: carboxymethylcellulose (CMC)
  T/C: 112 % of control and 114 % of control
dose: 150.0 mg/kg/injection, schedule: Q01DX Z (ip), vehicle: methylcellulose (MC)
  T/C: 103 % of control
[5]
  T/C: 103 % of control
dose: 225.0 mg/kg/injection, schedule: Q01DX Z (ip), vehicle: carboxymethylcellulose (CMC)
  T/C: 100 % of control
dose: 225.0 mg/kg/injection, schedule: Q01DX Z (ip), vehicle: methylcellulose (MC)
  T/C: 107 % of control
dose: 337.0 mg/kg/injection, schedule: Q01DX Z (ip), vehicle: carboxymethylcellulose (CMC)
  T/C: 97 % of control
dose: 337.0 mg/kg/injection, schedule: Q01DX Z (ip), vehicle: methylcellulose (MC)
  T/C: 109 % of control
[6]
  T/C: 91 % of control
dose: 600.0 mg/kg/injection, schedule: Q01DX001 (ip), vehicle: saline
  T/C: 98 % of control
dose: 1200.0 mg/kg/injection, schedule: Q01DX001 (ip), vehicle: saline
  T/C: 120 % of control
dose: 2400.0 mg/kg/injection, schedule: Q01DX001 (ip), vehicle: saline
  T/C: 120 % of control

## O=C(Nc1cccc(CSc2nc3nc[nH]c(=O)c3[nH]2)c1)Oc1ccccc1
dose: 50.0 mg/kg/injection, schedule: Q01DX001 (ip), vehicle: Klucel (hydroxypropylcellulose) (HPC)
  T/C: 96 % of control
[7]
  T/C: 91 % of control
[8]
  T/C: 98 % of control

## C/C=C(C)/C=N/Nc1nnc(N/N=C/C(C)=C/C)c2ccccc12
dose: 50.0 mg/kg/injection, schedule: Q01DX001 (ip), vehicle: carboxymethylcellulose (CMC)
  T/C: 95 % of control
[1]
  T/C: 95 % of control
[2]
  T/C: 103 % of control

## CC=NC(C)(C)C
dose: 12.5 mg/kg/injection, schedule: Q01DX009 (ip), vehicle: saline with Tween-80
  T/C: 91 % of control
dose: 25.0 mg/kg/injection, schedule: Q01DX009 (ip), vehicle: saline with Tween-80
  T/C: 94 % of control
dose: 50.0 mg/kg/injection, schedule: Q01DX009 (ip), vehicle: saline with Tween-80
  T/C: 95 % of control and 91 % of control

## Cc1ccc(S(=O)(=O)OC(CO)C(O)C(O)C(CO)OS(=O)(=O)c2ccc(C)cc2)cc1 (configuration not stated) (tested in a mixture with another compound)
[9]
  T/C: 86 % of control
[10]
  T/C: 101 % of control
[11]
  T/C: 93 % of control

## Cn1ncc(=O)[nH]c1=O
dose: 50.0 mg/kg/injection, schedule: Q01DX009 (ip), vehicle: saline
  T/C: 100 % of control
dose: 100.0 mg/kg/injection, schedule: Q01DX009 (ip), vehicle: saline
  T/C: 108 % of control
dose: 200.0 mg/kg/injection, schedule: Q01DX009 (ip), vehicle: saline
  T/C: 103 % of control

## Cc1cccc(N=C/C=C/c2ccccc2)c1C
[12]
  T/C: 94 % of control
[13]
  T/C: 100 % of control
dose: 400.0 mg/kg/injection, schedule: Q01DX009 (ip), vehicle: Klucel (hydroxypropylcellulose) (HPC)
  T/C: 108 % of control

## O=C1Nc2c(ccc3ccccc23)/C1=C/c1ccccc1
dose: 100.0 mg/kg/injection, schedule: Q04DX003 (ip), vehicle: saline with Tween-80
  T/C: 100 % of control
dose: 200.0 mg/kg/injection, schedule: Q04DX003 (ip), vehicle: saline with Tween-80
  T/C: 100 % of control
dose: 400.0 mg/kg/injection, schedule: Q04DX003 (ip), vehicle: saline with Tween-80
  T/C: 97 % of control

## CO/N=C1\C(C)(C)C(C)(C)C(C)(C)C1(C)SS(=O)(=O)O (configuration not stated)
dose: 100.0 mg/kg/injection, schedule: Q04DX002 (ip), vehicle: saline
  T/C: 90 % of control
dose: 200.0 mg/kg/injection, schedule: Q04DX002 (ip), vehicle: saline
  T/C: 101 % of control
dose: 400.0 mg/kg/injection, schedule: Q04DX002 (ip), vehicle: saline
  T/C: 107 % of control

## CC1=CC(=O)CC(=O)O1
[7]
  T/C: 103 % of control
[12]
  T/C: 96 % of control
dose: 100.0 mg/kg/injection, schedule: Q04DX003 (ip), vehicle: Klucel (hydroxypropylcellulose) (HPC)
  T/C: 97 % of control
[8]
  T/C: 108 % of control
[13]
  T/C: 94 % of control
dose: 200.0 mg/kg/injection, schedule: Q04DX003 (ip), vehicle: Klucel (hydroxypropylcellulose) (HPC)
  T/C: 101 % of control
dose: 400.0 mg/kg/injection, schedule: Q01DX001 (ip), vehicle: Klucel (hydroxypropylcellulose) (HPC)
  T/C: 103 % of control
dose: 400.0 mg/kg/injection, schedule: Q04DX003 (ip), vehicle: Klucel (hydroxypropylcellulose) (HPC)
  T/C: 95 % of control

## CCN(CC)C(=S)S.[Cu+2]
[4]
  T/C: 105 % of control
[5]
  T/C: 102 % of control
[6]
  T/C: 105 % of control

## CC(CNC1CCCCC1)OC(=O)c1ccc(N)cc1 (configuration not stated)
dose: 75.0 mg/kg/injection, schedule: Q01DX001 (ip), vehicle: saline
  T/C: 100 % of control

## O=c1[nH]c2c(Cl)cc(Cl)cc2c2ccccc12
[1]
  T/C: 87 % of control
[2]
  T/C: 92 % of control
[3]
  T/C: 100 % of control

## CC(=O)Nc1cccc(OCCCOc2cccc(C(=N)N)c2)c1
dose: 50.0 mg/kg/injection, schedule: Q01DX009 (ip), vehicle: Klucel (hydroxypropylcellulose) (HPC)
  T/C: 103 % of control
[12]
  T/C: 100 % of control
[13]
  T/C: 94 % of control

## O=Cc1ccc(OCc2ccccc2)cc1
[9]
  T/C: 96 % of control
[10]
  T/C: 96 % of control
[11]
  T/C: 92 % of control

## C=C(Br)CNC(=O)NCCCl
[7]
  T/C: 90 % of control
[8]
  T/C: 96 % of control
